Where a SMILES comes first, the peptide text is derived from it. Bridges are numbered along the chain shown (N, C = ends). Triazole bridges read from a SMILES are 1,4-linked. [ ]: non-standard residue; d: D form. Ala(indol-2-yl) = N[C@@H](Cc1cc2ccccc2[nH]1)C(=O)O; Dap(N3) = [N-]=[N+]=NC[C@H](N)C(=O)O; Aha = [N-]=[N+]=NCC[C@H](N)C(=O)O; Pra = C#CC[C@H](N)C(=O)O
What was measured:
[1] = Inhibition of 5'-UUCACGGAGAA[flc] mRNA binding to biotinylated His6-tagged Yersinia pseudotuberculosis CsrA measured by fluorescence polarization assay
Carbon storage regulator = Carbon storage regulator (Escherichia coli, UniProt P69913); test: Inhibition of 5'-AGACAAGGAUGU[flc] mRNA binding to biotinylated His6-tagged Escherichia coli CsrA measured by fluorescence polarization assay
[2] = Inhibition of 5'-UUCACGGAGAA[flc] mRNA binding to biotinylated His6-tagged Yersinia pseudotuberculosis CsrA measured in presence of 5 mM DTT by fluorescence polarization assay
[3] = Binding affinity towards biotinylated His6-tagged Yersinia pseudotuberculosis CsrA measured by Microscale thermophoresis assay (MST)

Chain of Carbon storage regulator (P69913 whole entry): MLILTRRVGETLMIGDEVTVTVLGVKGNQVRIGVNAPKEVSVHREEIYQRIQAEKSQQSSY

Compound | IC50 [1] [µM] | IC50 (Carbon storage regulator) [µM] | IC50 [2] [µM] | Kd [3] [µM]
CC(=O)N[C@H](C(=O)N[C@H]1Cc2cnnn2C[C@@H](C(=O)N[C@@H](Cc2c[nH]c3ccccc23)C(N)=O)NC(=O)[C@H](CC(C)C)NC(=O)[C@H](CCC(=O)O)NC(=O)[C@H](CO)NC1=O)C(C)C | 178 | 48.1 | – | –
CC(=O)N[C@H](C(=O)N[C@H]1CSSC[C@@H](C(=O)N[C@@H](Cc2cc3ccccc3[nH]2)C(N)=O)NC(=O)[C@H](CC(C)C)NC(=O)[C@H](C)NC(=O)[C@H](CO)NC1=O)C(C)C (Ac-VCSALC[Ala(indol-2-yl)]-NH2; disulfide 2-6) | 22.8 | – | – | –
CC(=O)N[C@H](C(=O)N[C@H]1CSSC[C@@H](C(=O)N[C@@H](C)C(N)=O)NC(=O)[C@H](CC(C)C)NC(=O)[C@H](CCC(=O)O)NC(=O)[C@H](CO)NC1=O)C(C)C (Ac-VCSELCA-NH2; disulfide 2-6) | > 500 | – | – | –
CC(=O)N[C@H]1CSSC[C@@H](C(=O)N[C@@H](Cc2cc3ccccc3[nH]2)C(N)=O)NC(=O)[C@H](CC(C)C)NC(=O)[C@H](CCC(=O)O)NC(=O)[C@H](CO)NC1=O (Ac-CSELC[Ala(indol-2-yl)]-NH2; disulfide 1-5) | 128 | – | – | –
CC[C@H](C)[C@H](NC(=O)[C@H]1CCCCN1C)C(=O)N[C@H](CCc1nc(C(=O)N[C@@H](Cc2ccc(O)cc2)C[C@H](C)C(=O)O)cs1)C(C)C | 11 | – | – | –
Ac-VASELAW-NH2 | > 1000 | – | – | –
CC(=O)N[C@H](C(=O)N[C@H]1CSSC[C@@H](C(=O)N[C@@H](Cc2cc3ccccc3[nH]2)C(N)=O)NC(=O)[C@H](CC(C)C)NC(=O)[C@H](CCC(=O)O)NC(=O)[C@H](CO)NC1=O)C(C)C (Ac-VCSELC[Ala(indol-2-yl)]-NH2; disulfide 2-6) | 6.9 | 182 | > 1000 | 10.5
CC(=O)N[C@H](C(=O)N[C@H]1CSSC[C@@H](C(=O)N[C@@H](Cc2cc3ccccc3[nH]2)C(N)=O)NC(=O)[C@H](C)NC(=O)[C@H](CCC(=O)O)NC(=O)[C@H](CO)NC1=O)C(C)C (Ac-VCSEAC[Ala(indol-2-yl)]-NH2; disulfide 2-6) | 57.9 | – | – | –
CC(=O)N[C@H](C(=O)N[C@H]1Cn2cc(nn2)C[C@@H](C(=O)N[C@@H](Cc2c[nH]c3ccccc23)C(N)=O)NC(=O)[C@H](CC(C)C)NC(=O)[C@H](CCC(=O)O)NC(=O)[C@H](CO)NC1=O)C(C)C (Ac-V[Dap(N3)]SEL[Pra]W-NH2; triazole 2-6) | 92.8 | 6.8 | – | –
CC(=O)N[C@H](C(=O)N[C@H]1Cc2cn(nn2)CC[C@@H](C(=O)N[C@@H](Cc2c[nH]c3ccccc23)C(N)=O)NC(=O)[C@H](CC(C)C)NC(=O)[C@H](CCC(=O)O)NC(=O)[C@H](CO)NC1=O)C(C)C (Ac-V[Pra]SEL[Aha]W-NH2; triazole 2-6) | 76 | 3.4 | – | –
CC(C)C[C@@H]1NC(=O)[C@H](CCC(=O)O)NC(=O)[C@H](CO)NC(=O)[C@@H](NC(=O)[C@@H](N)C(C)C)CSSC[C@@H](C(=O)N[C@@H](Cc2cc3ccccc3[nH]2)C(N)=O)NC1=O (H-VCSELC[Ala(indol-2-yl)]-NH2; disulfide 2-6) | 27.6 | – | – | –
CC(=O)N[C@H](C(=O)N[C@H]1CSSC[C@@H](C(=O)N[C@@H](Cc2cc3ccccc3[nH]2)C(=O)O)NC(=O)[C@H](CC(C)C)NC(=O)[C@H](CCC(=O)O)NC(=O)[C@H](CO)NC1=O)C(C)C (Ac-VCSELC[Ala(indol-2-yl)]-OH; disulfide 2-6) | 17.4 | – | – | –
CC(=O)N[C@H](C(=O)N[C@H]1CSSC[C@@H](C(=O)N[C@@H](Cc2cc3ccccc3[nH]2)C(N)=O)NC(=O)[C@H](CC(C)C)NC(=O)[C@H](CCC(=O)O)NC(=O)[C@H](C)NC1=O)C(C)C (Ac-VCAELC[Ala(indol-2-yl)]-NH2; disulfide 2-6) | > 1000 | – | – | –
CC(=O)N[C@H](C(=O)N[C@H]1CCn2nncc2C[C@@H](C(=O)N[C@@H](Cc2c[nH]c3ccccc23)C(N)=O)NC(=O)[C@H](CC(C)C)NC(=O)[C@H](CCC(=O)O)NC(=O)[C@H](CO)NC1=O)C(C)C | 309 | 83.4 | – | –
CC(=O)N[C@H](C(=O)N[C@H]1CSSC[C@@H](C(N)=O)NC(=O)[C@H](CC(C)C)NC(=O)[C@H](CCC(=O)O)NC(=O)[C@H](CO)NC1=O)C(C)C (Ac-VCSELC-NH2; disulfide 2-6) | > 1000 | – | – | –
CC(=O)N[C@H](C(=O)N[C@H]1Cc2cnnn2CC[C@@H](C(=O)N[C@@H](Cc2c[nH]c3ccccc23)C(N)=O)NC(=O)[C@H](CC(C)C)NC(=O)[C@H](CCC(=O)O)NC(=O)[C@H](CO)NC1=O)C(C)C | 337 | 51.6 | – | –
CC(=O)N[C@H](C(=O)N[C@H]1Cc2cn(nn2)C[C@@H](C(=O)N[C@@H](Cc2c[nH]c3ccccc23)C(N)=O)NC(=O)[C@H](CC(C)C)NC(=O)[C@H](CCC(=O)O)NC(=O)[C@H](CO)NC1=O)C(C)C (Ac-V[Pra]SEL[Dap(N3)]W-NH2; triazole 2-6) | 35.3 | 4.9 | – | –
CC(=O)N[C@@H](C)C(=O)N[C@H]1CSSC[C@@H](C(=O)N[C@@H](Cc2cc3ccccc3[nH]2)C(N)=O)NC(=O)[C@H](CC(C)C)NC(=O)[C@H](CCC(=O)O)NC(=O)[C@H](CO)NC1=O (Ac-ACSELC[Ala(indol-2-yl)]-NH2; disulfide 2-6) | 114 | – | – | –

Reference: ChEMBL document CHEMBL5131479, “Phage display-based discovery of cyclic peptides against the broad spectrum bacterial anti-virulence target CsrA” (Eur J Med Chem, 2022)
